Literature values, collected in patent US11590241B2, “Nanoparticle conjugated synthetic opioid prodrugs and methods of their uses” (VIRGINIA COMMONWEALTH UNIVERSITY, priority 2016, dated 2023).

What was measured:
MOR [1] = molecular target: T1, MOR (Homo sapiens, UniProt P35372); settings: read-out: Ki (nM) μ; [3H]naloxone; data from Li et al. 2009
T1 construct: expressed in transfected cells; host or cells: CHO (Chinese hamster ovary) cells, membrane preparation

MOR [2] = molecular target: T1, MOR; settings: data from Li et al. 2009
mice = settings: parent compound, earlier data
morphine-pelleted mice = settings: U.S. Pat. No. 8,980,908
[3] = extensive hepatic first-pass metabolism

T1 sequence (P35372 whole entry): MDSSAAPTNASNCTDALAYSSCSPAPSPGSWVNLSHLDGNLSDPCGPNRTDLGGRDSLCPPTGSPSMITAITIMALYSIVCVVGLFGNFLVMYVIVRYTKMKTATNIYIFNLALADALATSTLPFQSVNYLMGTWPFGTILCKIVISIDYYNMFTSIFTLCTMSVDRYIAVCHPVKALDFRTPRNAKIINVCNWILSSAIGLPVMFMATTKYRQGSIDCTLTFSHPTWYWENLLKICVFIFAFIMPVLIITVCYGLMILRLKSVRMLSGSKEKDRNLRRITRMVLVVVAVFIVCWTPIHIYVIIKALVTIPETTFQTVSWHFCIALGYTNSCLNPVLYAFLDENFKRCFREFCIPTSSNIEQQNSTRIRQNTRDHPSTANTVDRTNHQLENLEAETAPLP

SMILES	Ki (MOR [1])	MOR [35S]GTPγS Binding % Emax of DAMGO (MOR [2])	EC50 (MOR [2]; read-out: MOR [35S]GTPγS Binding EC50)	AD50, blocking the antinociceptive effect of morphine (mice)	agonist activity (antinociception) (mice)	intestinal motility (morphine-pelleted mice)	oral bioavailability [3]
O=C(Cc1ccncc1)N[C@@H]1CC[C@@]2(O)[C@H]3Cc4ccc(O)c5c4[C@@]2(CCN3CC2CC2)[C@H]1O5 [NAP, 17-cyclopropylmethyl-3,14 β-dihydroxy-4,5 α-epoxy-6 β-[(4-pyridyl)acetamido]morphinan]	0.37 ± 0.07 nM	22.7 ± 0.8%	1140 ± 380 pM	4.98 mg/kg	did not carry any significant agonist activity	increase intestinal motility	–
C=CCN1CC[C@]23c4c5ccc(O)c4O[C@H]2C(=O)CC[C@@]3(O)[C@H]1C5 [Naloxone]	–	–	–	–	–	–	~2%
